The values below come from patent US8962842B2, “2-pyridone antimicrobial compositions” (priority 2010, dated 2015).

Where two headings read alike, the source gives them in different places. A value given as a limit tells only on which side of the number the result lay.

The subject of data set [1] is Escherichia coli (6 strains). Nature of the data set: MIC range, broader panel of Quotient Bioresearch strains (Table 4). It is filed as cell-based. The following applies: for MIC50: read-out: MIC Range Median, Escherichia coli (6 strains).
Data set [2] has as its system Streptococcus pneumonia (5 strains). Nature of the data set: MIC range, broader panel of Quotient Bioresearch strains (Table 3). Conditions: Streptococcus pneumoniae; for MIC50: read-out: MIC Range Median, Streptococcus pneumonia (5 strains).
Data set [3] concerns Enterococcus faecium (3 strains). The data set is described as above. The following applies: for MIC50: read-out: MIC Range Median, Enterococcus faecium (3 strains).
For data set [4], the system named is Group C Streptococcus (4 strains). Described as above. The following applies: for MIC50: read-out: MIC Range Median, Group C Streptococcus (4 strains).
The subject of data set [5] is Pseudomonas aeruginosa (12 strains). The data set is described as follows: MIC range, broader panel of Quotient Bioresearch strains (Table 4). Conditions: for MIC50: read-out: MIC Range Median, Pseudomonas aeruginosa (12 strains). Format: cell-based.
The test system of data set [6] is Enterococcus faecalis (5 strains). The data set is described as follows: MIC range, broader panel of Quotient Bioresearch strains (Table 3). Conditions: for MIC50: read-out: MIC Range Median, Enterococcus faecalis (5 strains).
Data set [7] relates to Klebsiella pneumonia (4 strains). The data set is described as follows: MIC range, broader panel of Quotient Bioresearch strains (Table 4). It is filed as cell-based. The following applies: Klebsiella pneumoniae; for MIC50: read-out: MIC Range Median, Klebsiella pneumonia (4 strains).
The test system of data set [8] is Haemophilus influenza (5 strains). Described as above. Format: cell-based, Haemophilus influenzae. Conditions: for MIC50: 16 h, Median of the strain panel.
For data set [9], the system named is Burkholderia cepacia (5 strains). The description is as above. It is filed as cell-based. The following applies: for MIC50: read-out: MIC Range Median, Burkholderia cepacia (5 strains).
Data set [10] concerns Streptococcus pyogenes (4 strains). The data set is described as follows: MIC range, broader panel of Quotient Bioresearch strains (Table 3). The following applies: for MIC50: read-out: MIC Range Median, Streptococcus pyogenes (4 strains).
Data set [11] relates to Acinetobacter baumannii (12 strains). The data set is described as follows: MIC range, broader panel of Quotient Bioresearch strains (Table 4). Conditions: for MIC50: read-out: MIC Range Median, Acinetobacter baumannii (12 strains). It is filed as cell-based.
Data set [12] deals with Staphylococcus aureus (16 strains). The data set is described as follows: MIC range, broader panel of Quotient Bioresearch strains (Table 3). The following applies: for MIC50: read-out: MIC Range Median, Staphylococcus aureus (16 strains).
Data set [13] can be described thus: Mouse pharmacokinetics, intravenous or oral 10 mg/kg (Table 9). It is filed as in vivo. The following applies: mice, plasma; for half-life: read-out: Elimination Half life (converted); for bioavailability: p.o. vs i.v. As to the method:
Groups of 21 mice were treated with select examples at 10 mg/kg. Mice were treated either intravenously or orally (by gavage). At predetermined time points (0.25, 0.5, 1, 2, 4, 8 and 24 hours), 3 mice were sacrificed and blood samples drawn by cardiac puncture. Plasma was obtained by centrifugation and stored at −80° C. Plasma samples were analyzed by LC-MS for remaining amounts of compounds.

The mark [14] stands for this setting: read-out: MIC Range High, Escherichia coli (6 strains).
The mark [15] stands for this setting: read-out: MIC Range Low, Escherichia coli (6 strains).
Where [16] appears, read: read-out: MIC Range High, Streptococcus pneumonia (5 strains).
Setting [17] is: read-out: MIC Range Low, Streptococcus pneumonia (5 strains).
Where [18] appears, read: read-out: MIC Range High, Enterococcus faecium (3 strains).
The mark [19] stands for this setting: read-out: MIC Range Low, Enterococcus faecium (3 strains).
[20] abbreviates: read-out: MIC Range High, Group C Streptococcus (4 strains).
Where [21] appears, read: read-out: MIC Range Low, Group C Streptococcus (4 strains).
[22] abbreviates: read-out: MIC Range High, Pseudomonas aeruginosa (12 strains).
Where [23] appears, read: read-out: MIC Range Low, Pseudomonas aeruginosa (12 strains).
The mark [24] stands for this setting: read-out: MIC Range High, Enterococcus faecalis (5 strains).
Where [25] appears, read: read-out: MIC Range Low, Enterococcus faecalis (5 strains).
The mark [26] stands for this setting: read-out: MIC Range High, Klebsiella pneumonia (4 strains).
Setting [27] is: read-out: MIC Range Low, Klebsiella pneumonia (4 strains).
Where [28] appears, read: High of the strain panel, read-out: MIC Range High, Haemophilus influenza (5 strains).
[29] abbreviates: Low of the strain panel, read-out: MIC Range Low, Haemophilus influenza (5 strains).
Where [30] appears, read: read-out: MIC Range High, Burkholderia cepacia (5 strains).
Where [31] appears, read: read-out: MIC Range Low, Burkholderia cepacia (5 strains).
Where [32] appears, read: read-out: MIC Range High, Streptococcus pyogenes (4 strains).
Setting [33] is: read-out: MIC Range Low, Streptococcus pyogenes (4 strains).
The mark [34] stands for this setting: read-out: MIC Range High, Acinetobacter baumannii (12 strains).
Where [35] appears, read: read-out: MIC Range Low, Acinetobacter baumannii (12 strains).
The mark [36] stands for this setting: read-out: MIC Range High, Staphylococcus aureus (16 strains).
Setting [37] is: read-out: MIC Range Low, Staphylococcus aureus (16 strains).

For `Cc1c(-c2ccc(N)c(F)c2)c(F)cn2c(=O)c(C(=O)[O-])cc(C3CC3)c12.[K+]` [Example 1 K salt, potassium 8-(4-amino-3-fluoro-phenyl)-1-cyclopropyl-7-fluoro-9-methyl-4-oxo-4H-quinolizine-3-carboxylate], the MIC in [1] (setting [14]) is greater than 32 µg/mL; in data set [1] (setting [15]) it was 0.06 µg/mL; in data set [2] (setting [16]), 0.5 µg/mL; in data set [2] (setting [17]) it was 0.5 µg/mL; in data set [3] (setting [18]), 8 µg/mL; in data set [3] (setting [19]) it was 1 µg/mL. Besides, the MIC in data set [4] (setting [20]) is 0.5 µg/mL; in [4] (setting [21]), 0.12 µg/mL; in [5] (setting [22]), 32 µg/mL; in data set [5] (setting [23]) it was 2 µg/mL; in data set [6] (setting [24]) it was 4 µg/mL; in [6] (setting [25]), 0.12 µg/mL. The MIC in data set [7] (setting [26]) was greater than 32 µg/mL; in data set [7] (setting [27]) it was 0.5 µg/mL; in [8] (setting [28]) it was 0.03 µg/mL; in data set [8] (setting [29]), no more than 0.015 µg/mL; in [9] (setting [30]) it was 2 µg/mL; in [9] (setting [31]), 0.5 µg/mL. Further, the MIC in data set [10] (setting [32]) is 1 µg/mL; in data set [10] (setting [33]), 0.5 µg/mL; in data set [11] (setting [34]), greater than 32 µg/mL; in data set [11] (setting [35]) it was 0.25 µg/mL; in data set [12] (setting [36]), 0.5 µg/mL; in data set [12] (setting [37]), no more than 0.015 µg/mL. The MIC50 was greater than 32 µg/mL in data set [1]; 0.5 µg/mL in [2]; 2 µg/mL in data set [3]; 0.25 µg/mL in [4]; 16 µg/mL in data set [5]; 0.12 µg/mL in [6]. Also, the MIC50 in [7] is 16 µg/mL; in data set [8] it was no more than 0.015 µg/mL; in data set [9], 1 µg/mL; in data set [10], 0.5 µg/mL; in [11] it was 20 µg/mL; in data set [12] it was 0.5 µg/mL.
On to `Cc1c(-c2ccc(N)c(F)c2)ccn2c(=O)c(C(=O)[O-])cc(C3CC3)c12.[K+]` [Ex. 2 K salt], for which the half-life in data set [13] (iv, i.v.) was 1.48 h. In [13] (iv), the AUC(0-inf) amounted to 1340 ng·h/mL and the Cmax was 2100 ng/mL. In data set [13] (po), this molecule yielded a bioavailability of 47.8%, an AUC(0-inf) of 642 ng·h/mL and a Cmax of 394 ng/mL. The half-life in data set [13] (po, p.o.) was 1.51 h.
For `Cc1c(-c2cc(F)c(N)c(F)c2)ccn2c(=O)c(C(=O)[O-])cc(C3CC3)c12.[K+]` [Example 39 K salt, potassium 8-(4-amino-3,5-difluoro-phenyl)-1-cyclopropyl-9-methyl-4-oxo-4H-quinolizine-3-carboxylate], the MIC in [1] (setting [14]) was 16 µg/mL; in data set [1] (setting [15]), no more than 0.015 µg/mL; in data set [2] (setting [16]), 0.25 µg/mL; in data set [2] (setting [17]), 0.12 µg/mL; in data set [3] (setting [18]), 1 µg/mL; in [3] (setting [19]), 0.12 µg/mL. Also, the MIC is 0.12 µg/mL in [4] (setting [20]); 0.03 µg/mL in data set [4] (setting [21]); 16 µg/mL in data set [5] (setting [22]); 0.5 µg/mL in data set [5] (setting [23]); 0.5 µg/mL in data set [6] (setting [24]); no more than 0.015 µg/mL in [6] (setting [25]). In addition, the MIC is 32 µg/mL in data set [7] (setting [26]); 0.12 µg/mL in data set [7] (setting [27]); no more than 0.015 µg/mL in data set [8] (setting [28]); no more than 0.015 µg/mL in data set [8] (setting [29]); 0.5 µg/mL in data set [9] (setting [30]); 0.06 µg/mL in data set [9] (setting [31]). Also, the MIC in data set [10] (setting [32]) was 0.25 µg/mL; in [10] (setting [33]) it was 0.06 µg/mL; in data set [11] (setting [34]), 16 µg/mL; in [11] (setting [35]) it was 0.06 µg/mL; in data set [12] (setting [36]), 0.12 µg/mL; in data set [12] (setting [37]), no more than 0.015 µg/mL. Besides, the MIC50 in [1] was 12 µg/mL; in [2], 0.12 µg/mL; in data set [3], 0.5 µg/mL; in data set [4], 0.09 µg/mL; in data set [5], 4 µg/mL; in data set [6], 0.03 µg/mL. The MIC50 in [7] is 9 µg/mL; in data set [8], no more than 0.015 µg/mL; in [9] it was 0.25 µg/mL; in data set [10], 0.12 µg/mL; in [11], 4 µg/mL; in data set [12], 0.06 µg/mL.
Regarding `Cc1c(-c2ccc(O)cc2)ccn2c(=O)c(C(=O)[O-])cc(C3CC3)c12.[K+]` [Ex. 46 K salt], the half-life is 1.07 h in [13] (iv, i.v.) and 4.16 h in data set [13] (po, p.o.). The AUC(0-inf) turned out to be 474 ng·h/mL in data set [13] (iv) and 389 ng·h/mL in data set [13] (po). Moreover, the Cmax was 1060 ng/mL in [13] (iv) and 156 ng/mL in data set [13] (po). The bioavailability in [13] (po) is 82.1%.
In the case of `Cc1c(-c2ccc3[nH]ncc3c2)ccn2c(=O)c(C(=O)[O-])cc(C3CC3)c12.[K+]` [Ex. 23 K salt], the half-life in data set [13] (iv, i.v.) was 1.16 h; in data set [13] (po, p.o.), 0.988 h. The AUC(0-inf) in data set [13] (iv) was 2040 ng·h/mL; in [13] (po) it was 1750 ng·h/mL. For the same molecule, the maximum concentration (Cmax) came out at 3430 ng/mL in data set [13] (iv) and 866 ng/mL in data set [13] (po). Besides, the bioavailability in data set [13] (po) was found to be 85.9%.
In the case of `Cc1c(-c2cc(F)c(N)cc2F)ccn2c(=O)c(C(=O)[O-])cc(C3CC3)c12.[K+]` [Ex. 28 K salt], the half-life in data set [13] (iv, i.v.) is 1.07 h. Moreover, in [13] (iv), the total exposure AUC(0-inf) came out at 1650 ng·h/mL and the highest concentration (Cmax) is 2850 ng/mL. Moreover, in data set [13] (po), the bioavailability was 43%, the AUC(0-inf) was 710 ng·h/mL and the maximum concentration (Cmax) was found to be 227 ng/mL. Moreover, the half-life in [13] (po, p.o.) is 3.33 h.
As to `Cc1c(-c2ccc(N)nc2)ccn2c(=O)c(C(=O)[O-])cc(C3CC3)c12.[K+]` [Ex. 21 K salt], the half-life in [13] (iv, i.v.) was 1.31 h; in data set [13] (po, p.o.), 2.11 h. The results for the Cmax in data set [13] (iv) and in [13] (po) were 467 ng/mL and 242 ng/mL, respectively. In addition, the AUC(0-inf) in data set [13] (po) is 471 ng·h/mL.
